From US4798897A, “Isoquinoline derivatives” (Asahi Kasei Kogyo Kabushiki Kaisha, priority 1987, dated 1989)

Key:
[1] = system: mesenteric artery; experiment: Relaxation of mesenteric artery (KCl-contracted); details: Oryctolagus cuniculus; rabbit mesenteric artery contracted with 15 to 20 mM KCl; read-out: ED50 (concentration attaining 50% of complete relaxation)
Procedure: 1. Relaxation of Mesenteric Artery
A rabbit of Japanese local variety weighing about 3 kg was bled to death. Then, the abdomen of the rabbit was dissected to locate a mesenteric artery. […] Thus, shrinking and relaxation of the artery could be measured as a load on the transducer. To the organ bath, KCl was added so that the KCl concentration became 15 to 20 mM, causing the artery to shrink. Then, the compounds of the present invention were added to the organ bath to observe relaxation of the artery.
The effect of the compounds of the present invention on relaxation of mesenteric artery was examined according to the method as mentioned hereinbefore.

[2] = system: bronchial tubes; experiment: Inhibition of histamine contraction of bronchial tubes (relaxation of bronchial tubes); details: Cavia porcellus; guinea pig bronchial tube, 10 μM histamine; Table 16; read-out: ED50 (50% decrease of histamine contraction of bronchial tubes)
Procedure: 3. Inhibition of Histamine Contraction of Bronchial Tubes (Relaxation of Bronchial Tubes)
That is, a bronchial tube sample taken from a guinea pig was suspended in the 20-ml bath filled with Krebs-Henseleit nutrient solution and maintained at a temperature of 37° C. To the bath was added histamine so that the histamine concentration became 10 μM, causing the bronchial tube sample to contract. After the contraction became stable, the compounds of the present invention were added cumulatively to the bath to observe relaxation of the bronchial tube sample.
The effect of the compounds of the present invention on relaxation of bronchial tubes was examined according to the method as mentioned hereinbefore.

Row | EC50 [1] | EC50 [2] | SMILES
1 | 13 µM | 27 µM | CNC1CCN(S(=O)(=O)c2cccc3cnccc23)C1 (centres unmarked) [Compound (76), 1-(5-isoquinolinesulfonyl)-3-methylaminopyrrolidine]
2 | 19 µM | 26 µM | CN(C)C1CCCN(S(=O)(=O)c2cccc3cnccc23)C1 (centres unmarked) [Compound (73), 1-(5-isoquinolinesulfonyl)-3-dimethylaminopiperidine]
3 | 15 µM | 25 µM | CCN(CC)CCN(C)S(=O)(=O)c1cccc2cnccc12 [Compound (42), N-(2-diethylaminoethyl)-N-methyl-5-isoquinolinesulfonamide]
4 | 12 µM | 9 µM | CCCCCCNC1CCCN(S(=O)(=O)c2cccc3c(O)nccc23)C1 (centres unmarked) [Compound (88), 1-(1-hydroxy-5-isoquinolinesulfonyl)-3-hexylaminopiperidine]
5 | 21 µM | 20 µM | CCN(CCCCC(C)CN)S(=O)(=O)c1cccc2cnccc12 (centres unmarked) [Compound (22), N-(5-aminomethylhexyl)-N-ethyl-5-isoquinolinesulfonamide]
6 | 8 µM | 14 µM | O=S(=O)(c1cccc2cnccc12)N1CCCC(NCc2ccccc2)C1 (centres unmarked) [Compound (69), 1-(5-isoquinolinesulfonyl)-3-benzylaminopiperidine]
7 | 22 µM | 19 µM | CCN(CCN(C)C1CCCCC1)S(=O)(=O)c1cccc2cnccc12 [Compound (47), N-[2-(N-cyclohexyl-N-methylamino)ethyl]-N-ethyl-5-isoquinolinesulfonamide]
8 | 5 µM | 19 µM | CCCCCCC(N)CN(CCCCCC)S(=O)(=O)c1cccc2cnccc12 (centres unmarked) [Compound (13), N-(2-aminooctyl)-N-hexyl-5-isoquinolinesulfonamide]
9 | 12 µM | 14 µM | CCCNC1CCN(S(=O)(=O)c2cccc3c(O)nccc23)CC1 [Compound (81), 1-(1-hydroxy-5-isoquinolinesulfonyl)-4-propylaminopiperidine]
10 | 21 µM | 23 µM | CCCCCCN(C)C1CCN(S(=O)(=O)c2cccc3cnccc23)CC1 [Compound (59), 1-(5-isoquinolinesulfonyl)-4-(N-hexyl-N-methylamino)piperidine]
11 | 11 µM | 20 µM | CCCCCCN(C(C)CNC(C)C)S(=O)(=O)c1cccc2cnccc12 (centres unmarked) [(39), N-hexyl-N-(2-isopropylamino-1-methylethyl)-5-isoquinolinesulfonamide]
12 | 15 µM | 20 µM | CCCCCCNC1CCN(S(=O)(=O)c2cccc3cnccc23)CC1 [Compound (57), 1-(5-isoquinolinesulfonyl)-4-hexylaminopiperidine]
13 | 8 µM | 17 µM | CCCCCCN(CCNCc1ccccc1)S(=O)(=O)c1cccc2cnccc12 [Compound (32), N-(2-benzylamioethyl)-N-hexyl-5-isoquinolinesulfonamide]
14 | 11 µM | 8 µM | CCNCCN(CC)S(=O)(=O)c1cccc2cnccc12 [Compound (26), N-(2-ethylaminoethyl)-N-ethyl-5-isoquniolinesulfonamide]
15 | 15 µM | 8 µM | NC1CCN(S(=O)(=O)c2cccc3cnccc23)CC1 [Compound (51), 1-(5-isoquinolinesulfonyl)-4-aminopiperidine]
16 | 23 µM | 17 µM | CCCCCCN(CCN1CCCCC1)S(=O)(=O)c1cccc2cnccc12 [Compound (45), N-hexyl-N-(2-piperidinoethyl)-5-isoquinolinesulfonamide]
17 | 16 µM | 32 µM | CC1CC(N)CN1S(=O)(=O)c1cccc2cnccc12 (centres unmarked) [Compound (77), 1-(5-isoquinolinesulfonyl)-3-amino-5-methylpyrrolidine]

Row | EC50 [1] | EC50 [2] | SMILES
18 | 14 µM | 11 µM | CCNC1CCN(S(=O)(=O)c2cccc3cnccc23)CC1 [Compound (53), 1-(5-isoquinolinesulfonyl)-4-ethylaminopiperidine]
19 | 9 µM | 15 µM | CCCCCCN(CCCCCN)S(=O)(=O)c1cccc2cnccc12 [Compound (9), N-(5-aminopentyl)-N-hexyl-5-isoquinolinesulfonamide]
20 | 3 µM | 9 µM | CCCCCCN(CC(C)N)S(=O)(=O)c1cccc2cnccc12 (centres unmarked) [Compound (11), N-(2-aminopropyl)-N-hexyl-5-isoquinolinesulfonamide]
21 | 14 µM | 22 µM | CCCN(C(C)CCCNCc1ccccc1)S(=O)(=O)c1cccc2cnccc12 (centres unmarked) [Compound (40), N-(4-benzylamino-1-methylbutyl)-N-propyl-5-isoquinolinesulfonamide]
22 | 20 µM | 27 µM | CCCCCCN(CCN(C)C)S(=O)(=O)c1cccc2cnccc12 [Compound (43), N-(2-dimethylaminoethyl)-N-hexyl-5-isoquinolinesulfonamide]
23 | 6 µM | 6 µM | CNC1CCCN(S(=O)(=O)c2cccc3cnccc23)C1 (centres unmarked) [Compound (64), 1-(5-isoquinolinesulfonyl)-3-methylaminopiperidine]
24 | 6 µM | 27 µM | CCCCCCNC(C)CN(CCCCCC)S(=O)(=O)c1cccc2cnccc12 (centres unmarked) [Compound (37), N-(2-hexylaminopropyl)-N-hexyl-5-isoquinolinesulfonamide]
25 | 23 µM | 25 µM | CCCCCCN(CCN1CCOCC1)S(=O)(=O)c1cccc2cnccc12 [Compound (46), N-hexyl-N-(2-morpholinoethyl)-5-isoquinolinesulfonamide]
26 | 5 µM | 8 µM | CN(CCN)S(=O)(=O)c1cccc2cnccc12 [Compound (1), N-(2-aminoethyl)-N-methyl-5-isoquinolinesulfonamide]
27 | 18 µM | 18 µM | CCCCCCN(CCC(C)CN)S(=O)(=O)c1cccc2cnccc12 (centres unmarked) [Compound (23), N-(4-amino-3-methylbutyl)-N-hexyl-5-isoquinolinesulfonamide]
28 | 20 µM | 25 µM | O=S(=O)(c1cccc2cnccc12)N1CCC(Nc2ccccc2)CC1 [Compound (58), 1-(5-isoquinolinesulfonyl)-4-phenylaminopiperidine]
29 | 15 µM | 15 µM | O=S(=O)(c1cccc2cnccc12)N1CCC(NCCc2ccccc2)CC1 [Compound (61), 1-(5-isoquinolinesulfonyl)-4-phenethylaminopiperidine]
30 | 13 µM | 13 µM | CCCCN(C(C)C(C)N)S(=O)(=O)c1cccc2cnccc12 (centres unmarked) [Compound (16), N-(2-amino-1-methylpropyl)-N-butyl-5-isoquinolinesulfonamide]
31 | 10 µM | 10 µM | CNCCN(C)S(=O)(=O)c1cccc2cnccc12 [Compound (25), N-(2-methylaminoethyl)-N-methyl-5-isoquinolinesulfonamide]
32 | 15 µM | 10 µM | CCNC1CCCN(S(=O)(=O)c2cccc3c(Cl)nccc23)C1 (centres unmarked) [Compound (97), 1-(1-chloro-5-isoquinolinesulfonyl)-3-ethylaminopiperidine]
33 | 2 µM | 13 µM | CCCCCCN(CCCN)S(=O)(=O)c1cccc2cnccc12 [Compound (7), N-(3-aminopropyl)-N-hexyl-5-isoquinolinesulfonamide]
34 | 14 µM | 18 µM | O=S(=O)(c1cccc2c(Cl)nccc12)N1CCC(NCc2ccccc2)CC1 [Compound (95), 1-(1-chloro-5-isoquinolinesulfonyl)-4-benzylaminopiperidine]
